In patent US7550629B2, “Trifluoromethyl-containing phenylsulfonamide beta amyloid inhibitors” (Wyeth, priority 2006, dated 2009) one finds EC50 data, which are given here for 29 molecules.

Assay [1] relates to beta amyloid 42. Put plainly: Aβ40/42 ELISA Assay: Aβ42. It is filed as cell-based. Conditions: Cricetulus griseus; CHO cells carrying the APP-REP-NL plasmid, 22 hours, sandwich ELISA of medium. On the procedure: (§1) Pharmacology: Aβ40/42 ELISA Assay
(§2) Compounds are diluted from DMSO stocks to 2 μM and below in a cell culture medium. Compounds are then applied to CHO cells carrying the APP-REP-NL plasmid [Sudhir et. al, J. Biol. Chem. 267:25602-25608 (1992)] for a period of 22 hours. After the conditioning period, medium is collected, diluted in assay buffer containing protein, and samples, controls, and synthetic peptide standards are incubated on a prepared ELISA plate. Using a sandwich ELISA with antibodies specifically directed against the carboxyl terminus of beta amyloid 40 or 42 [analogous to the method reported by Haugabook et al., J. Neurosci. Methods 108:171-179 (2001) but using goat anti-mouse IgGl (source: Southern Biotech) as the anchor, 6E10 as the capture antibody (Source: SENETEK), rabbit antiαβ40 and antiαβB42 (source: QCB) and APL-donkey anti-rabbit IgG (H+L, source: Southern Biotech) as the detection antibody], the effect of the compound treatment on the cellular production of extracellular beta amyloid is quantified. Cells treated with compound are subsequently incubated in cell culture medium containing […]. After a short incubation period, MTS/medium containing plates are read in a spectrophotometer to determine the extent to which compound toxicity affected the cell's metabolism and ability to synthesize beta amyloid.
(§3) Test Samples: compound samples are supplied as 20 mM stock solutions in a 100% DMSO solution.
(§4) APP-REP-NL cells: Qualified cell lines are carried from week to week using 1:100 dilutions and are cultured in DMEM supplemented with 1× antibiotic/antimycotic, 200 μg/ml of G418 antibiotic, and 10% certified fetal calf serum. Cells are also banked in liquid nitrogen. Periodically, beta amyloid production is assessed, and cells are either kept in culture or replaced with progenitors at full expression.
(§5) Antibodies: Are from certified lots that have already been qualified in this assay. Antibodies are stored in small frozen aliquots at −80° C. that are thawed and used.
(§6) A compound is considered active if it has an EC50 for Aβ 40 reduction of <100 μM and no toxicity at doses in the vicinity the EC50.

Assay [2] concerns beta amyloid 40. Put plainly: Aβ40/42 ELISA Assay: Aβ40. It is filed as cell-based. Particulars: Cricetulus griseus; CHO cells carrying the APP-REP-NL plasmid, 22 hours, sandwich ELISA of medium. As to the method: as §1, §2, §3, §4, §5, §6

`O=S(=O)(NC(CO)C(C(F)(F)F)C(F)(F)F)c1ccccc1` (stereo not shown) [Example 33, N-(3,3,3-trifluoro-1-hydroxymethyl-2-trifluoromethyl-propyl)-benzenesulfonamide]: the figures for the EC50 in assay [1] and in assay [2] were 7.02 µM and 6.26 µM, respectively. Regarding `O=S(=O)(NC(CO)C(C(F)(F)F)C(F)(F)F)c1cccc(C(F)(F)F)c1` (stereo not shown) [Example 16, N-[3,3,3-trifluoro-1-(hydroxymethyl)-2-(trifluoromethyl)propyl]-3-(trifluoromethyl)benzenesulfonamide], the response in assay [2] was half-maximal at 28.1 µM (EC50).

For the molecule `O=S(=O)(NC(CO)C(C(F)(F)F)C(F)(F)F)c1cccc(Cl)c1Cl` (stereo not shown) [Example 37, 2,3-dichloro-N-(3,3,3-trifluoro-1-hydroxymethyl-2-trifluoromethyl-propyl)-benzenesulfonamide], the results for the EC50 in assay [1] and in assay [2] were 14 µM and 11.1 µM, respectively. Molecule `CSc1cc(S(=O)(=O)NC(CO)C(C(F)(F)F)C(F)(F)F)ccc1Cl` (stereo not shown) [Example 23, 4-Chloro-3-methylsulfanyl-N-(3,3,3-trifluoro-1-hydroxymethyl-2-trifluoromethyl-propyl)-benzenesulfonamide] showed an EC50 in assay [2] of 22.3 µM. This counts as double-digit micromolar. On to `O=S(=O)(NC(CO)C(C(F)(F)F)C(F)(F)F)c1cc(F)c(F)c(F)c1` (stereo not shown) [Example 42, 3,4,5-Trifluoro-N-(3,3,3-trifluoro-1-hydroxymethyl-2-trifluoromethyl-propyl)-benzene sulfonamide], for which the EC50 in assay [1] stood at 5.5 µM; in assay [2] it was 6.63 µM. In the case of `O=S(=O)(NC(CO)C(C(F)(F)F)C(F)(F)F)c1cccc(F)c1` (stereo not shown) [Example 27, 3-fluoro-N-(3,3,3-trifluoro-1-hydroxymethyl-2-trifluoromethyl-propyl)-benzenesulfonamide], the figures for the EC50 in assay [1] and in assay [2] were 12.1 µM and 9.08 µM, respectively. For `Cc1cc(S(=O)(=O)NC(CO)C(C(F)(F)F)C(F)(F)F)ccc1F` (stereo not shown) [Example 25, 4-Fluoro-3-methyl-N-(3,3,3-trifluoro-1-hydroxymethyl-2-trifluoromethyl-propyl)-benzenesulfonamide], in that order: 8.37 µM and 6.63 µM. Regarding `O=S(=O)(NC(CO)C(C(F)(F)F)C(F)(F)F)c1ccc(F)c(F)c1` (stereo not shown) [Example 34, 3,4-difluoro-N-(3,3,3-trifluoro-1-hydroxymethyl-2-trifluoromethyl-propyl)-benzenesulfonamide], the 50% effective concentration (EC50) in assay [1] turned out to be 2.4 µM; in assay [2], 2.22 µM. With `O=S(=O)(NC(CO)C(C(F)(F)F)C(F)(F)F)c1ccc(OC(F)(F)F)cc1` (stereo not shown) [Example 20, N-(3,3,3-trifluoro-1-hydroxymethyl-2-trifluoromethyl-propyl)-4-trifluoromethoxy-benzenesulfonamide], the EC50 is 6.42 µM in assay [1] and 8.51 µM in assay [2]. As for `C[C@@H]([C@@H](CO)NS(=O)(=O)c1ccc(F)cc1)C(F)(F)F` [Example 48, 4-Fluoro-N-[(1S,2S)-3,3,3-trifluoro-1-(hydroxymethyl)-2-methylpropyl]benzenesulfonamide], the results for the EC50 in assay [1] and in assay [2] were 0.563 µM and 0.651 µM, respectively. For `O=S(=O)(NC(CO)C(C(F)(F)F)C(F)(F)F)c1ccc(Cl)c(F)c1` (stereo not shown) [Example 24, 4-Chloro-3-fluoro-N-(3,3,3-trifluoro-1-hydroxymethyl-2-trifluoromethyl-propyl)-benzenesulfonamide], in that order: 1.14 µM and 1.09 µM. For `O=[N+]([O-])c1ccc(S(=O)(=O)NC(CO)C(C(F)(F)F)C(F)(F)F)cc1` (stereo not shown) [Example 19, 4-nitro-N-(3,3,3-trifluoro-1-hydroxymethyl-2-trifluoromethyl-propyl)-benzenesulfonamide], in that order: 26.8 µM and 27.8 µM.

As to `O=S(=O)(NC(CO)C(C(F)(F)F)C(F)(F)F)c1ccc(Cl)c(Cl)c1` (stereo not shown) [Example 38, 3,4-dichloro-N-(3,3,3-trifluoro-1-hydroxymethyl-2-trifluoromethyl-propyl)-benzenesulfonamide], the EC50 in assay [1] came to 6.55 µM; in assay [2] it was 4.68 µM. For `O=S(=O)(NC(CO)C(C(F)(F)F)C(F)(F)F)c1ccc(F)cc1` (stereo not shown) [Example 26, 4-Fluoro-N-[3,3,3-trifluoro-1-(hydroxymethyl)-2-(trifluoromethyl)propyl]benzene sulfonamide], in that order: 1.21 µM and 1.13 µM.

Take `O=S(=O)(NC(CO)C(C(F)(F)F)C(F)(F)F)c1ccccc1F` (stereo not shown) [Example 28, 2-fluoro-N-(3,3,3-trifluoro-1-hydroxymethyl-2-trifluoromethyl-propyl)-benzenesulfonamide]: the EC50 amounted to 44.2 µM in assay [1] and 23.4 µM in assay [2]. For `Cc1cccc(S(=O)(=O)NC(CO)C(C(F)(F)F)C(F)(F)F)c1` (stereo not shown) [Example 15, 3-methyl-N-[3,3,3-trifluoro-1-(hydroxymethyl)-2-(trifluoromethyl)propyl]benzenesulfonamide], in that order: 14.5 µM and 15.1 µM. For `CC(C)c1ccc(S(=O)(=O)NC(CO)C(C(F)(F)F)C(F)(F)F)cc1` (stereo not shown) [Example 10, 4-isopropyl-N-[3,3,3-trifluoro-1-(hydroxymethyl)-2-(trifluoromethyl)propyl]benzenesulfonamide], in that order: 44.1 µM and 17.7 µM.

For `O=S(=O)(NC(CO)C(C(F)(F)F)C(F)(F)F)c1ccc(F)c(F)c1F` (stereo not shown) [Example 40, 2,3,4-trifluoro-N-(3,3,3-trifluoro-1-hydroxymethyl-2-trifluoromethyl-propyl)-benzenesulfonamide], the EC50 in assay [1] was determined as 45.4 µM; in assay [2], 32.2 µM. For `O=[N+]([O-])c1cc(S(=O)(=O)NC(CO)C(C(F)(F)F)C(F)(F)F)ccc1Cl` (stereo not shown) [Example 5, 4-Chloro-3-nitro-N-(3,3,3-trifluoro-1-hydroxymethyl-2-trifluoromethyl-propyl)-benzenesulfonamide], in that order: 76.9 µM and 46 µM.

The molecule `O=S(=O)(NC(CO)C(C(F)(F)F)C(F)(F)F)c1cccc(OC(F)F)c1` (stereo not shown) [Example 8, 3-(difluoromethoxy)-N-[3,3,3-trifluoro-1-(hydroxymethyl)2-(trifluoromethyl)propyl]benzenesulfonamide] displayed an EC50 in assay [2] of 47.9 µM.

For the molecule `O=S(=O)(NC(CO)C(C(F)(F)F)C(F)(F)F)c1cc(Cl)cc(Cl)c1` (stereo not shown) [Example 36, 3,5-dichloro-N-(3,3,3-trifluoro-1-hydroxymethyl-2-trifluoromethyl-propyl)-benzenesulfonamide], the response in assay [2] was half-maximal at 64 µM (EC50).

For the molecule `CCc1ccc(S(=O)(=O)NC(CO)C(C(F)(F)F)C(F)(F)F)cc1` (stereo not shown) [Example 9, 4-ethyl-N-[3,3,3-trifluoro-1-(hydroxymethyl)-2-(trifluoromethyl)propyl]benzenesulfonamide], the results for the EC50 in assay [1] and in assay [2] were 6.75 µM and 7.2 µM, respectively. As for `O=S(=O)(NC(CO)C(C(F)(F)F)C(F)(F)F)c1ccc(Br)cc1` (stereo not shown) [Example 31, 4-bromo-N-(3,3,3-trifluoro-1-hydroxymethyl-2-trifluoromethyl-propyl)-benzenesulfonamide], the 50% effective concentration (EC50) in assay [1] was 0.905 µM; in assay [2] it was 0.886 µM. The matching figures for `O=S(=O)(N[C@H](CO)C(C(F)(F)F)C(F)(F)F)c1ccc(Cl)cc1` [Example 1, 4-Chloro-N-[(1S)-3,3,3-trifluoro-1-(hydroxymethyl)-2-(trifluoromethyl)propyl]benzenesulfonamide]: 0.177 µM and 0.22 µM. For `O=S(=O)(NC(CO)C(C(F)(F)F)C(F)(F)F)c1ccc(Cl)c(C(F)(F)F)c1` (stereo not shown) [Example 4, 4-Chloro-N-(3,3,3-trifluoro-1-hydroxymethyl-2-trifluoromethyl-propyl)-3-trifluoromethyl-benzenesulfonamide], in that order: 89.9 µM and 37.7 µM. In the case of `O=S(=O)(NC(CO)C(C(F)(F)F)C(F)(F)F)c1ccc(F)cc1F` (stereo not shown) [Example 35, 2,4-difluoro-N-(3,3,3-trifluoro-1-hydroxymethyl-2-trifluoromethyl-propyl)-benzenesulfonamide], the figures for the EC50 in assay [1] and in assay [2] were 11.2 µM and 9.77 µM, respectively.

Regarding `O=S(=O)(NC(CO)C(C(F)(F)F)C(F)(F)F)c1cccc(Br)c1` (stereo not shown) [Example 32, 3-bromo-N-(3,3,3-trifluoro-1-hydroxymethyl-2-trifluoromethyl-propyl)-benzenesulfonamide], the results for the concentration for a half-maximal effect (EC50) in assay [1] and in assay [2] were 25.3 µM and 19.8 µM, respectively. Molecule `COc1cccc(S(=O)(=O)NC(CO)C(C(F)(F)F)C(F)(F)F)c1` (stereo not shown) [Example 12, 3-methoxy-N-[3,3,3-trifluoro-1-(hydroxymethyl)-2-(trifluoromethyl)propyl]benzenesulfonamide] returned an EC50 in assay [2] of 24.1 µM. The same measure, in the same setting: in the case of `CCCc1ccc(S(=O)(=O)NC(CO)C(C(F)(F)F)C(F)(F)F)cc1` (stereo not shown) [Example 13, 4-propyl-N-[3,3,3-trifluoro-1-(hydroxymethyl)-2-(trifluoromethyl)propyl]benzenesulfonamide] it was 18 µM.
